Experimental findings from patent US10584117B2, “1,3,4-oxadiazole amide derivative compound as histone deacetylase 6 inhibitor, and pharmaceutical composition containing same” (Chong Kun Dang Pharmaceutical Corp., priority 2015, dated 2020) are described below.

The target in the test is T1, human recombinant HDAC6 (Homo sapiens, UniProt Q9UBN7).
T1 construct: purchased Calbiochem 382180
T1 sequence (Q9UBN7 1-1215): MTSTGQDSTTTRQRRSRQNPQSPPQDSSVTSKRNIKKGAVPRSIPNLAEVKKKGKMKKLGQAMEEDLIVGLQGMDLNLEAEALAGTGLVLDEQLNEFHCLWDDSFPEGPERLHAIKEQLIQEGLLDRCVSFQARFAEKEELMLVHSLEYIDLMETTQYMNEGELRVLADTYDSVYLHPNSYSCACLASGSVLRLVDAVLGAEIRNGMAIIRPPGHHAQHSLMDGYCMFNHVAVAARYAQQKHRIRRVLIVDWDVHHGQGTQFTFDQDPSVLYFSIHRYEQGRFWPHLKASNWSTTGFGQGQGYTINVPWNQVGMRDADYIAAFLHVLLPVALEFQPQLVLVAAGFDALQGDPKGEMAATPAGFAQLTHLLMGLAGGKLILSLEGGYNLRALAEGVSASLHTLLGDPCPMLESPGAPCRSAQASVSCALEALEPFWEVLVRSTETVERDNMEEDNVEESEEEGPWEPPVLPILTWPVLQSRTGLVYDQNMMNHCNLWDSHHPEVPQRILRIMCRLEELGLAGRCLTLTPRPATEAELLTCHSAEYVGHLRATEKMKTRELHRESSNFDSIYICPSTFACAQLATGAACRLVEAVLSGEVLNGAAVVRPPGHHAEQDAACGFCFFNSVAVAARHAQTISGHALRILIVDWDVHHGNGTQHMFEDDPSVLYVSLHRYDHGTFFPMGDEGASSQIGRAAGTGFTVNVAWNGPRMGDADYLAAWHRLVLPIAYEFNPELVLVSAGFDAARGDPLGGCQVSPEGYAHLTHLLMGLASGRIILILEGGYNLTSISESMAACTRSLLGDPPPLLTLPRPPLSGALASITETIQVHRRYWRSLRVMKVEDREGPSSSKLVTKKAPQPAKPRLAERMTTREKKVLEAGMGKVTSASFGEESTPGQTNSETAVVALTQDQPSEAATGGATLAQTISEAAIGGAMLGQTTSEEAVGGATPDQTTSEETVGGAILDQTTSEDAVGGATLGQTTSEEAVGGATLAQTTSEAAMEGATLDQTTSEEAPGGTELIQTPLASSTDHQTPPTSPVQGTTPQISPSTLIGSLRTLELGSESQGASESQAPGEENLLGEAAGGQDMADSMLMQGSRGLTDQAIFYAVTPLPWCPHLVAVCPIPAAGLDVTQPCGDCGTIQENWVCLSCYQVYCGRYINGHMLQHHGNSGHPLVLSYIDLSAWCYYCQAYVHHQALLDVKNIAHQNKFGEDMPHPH
The test can be described thus: HDAC enzyme activity inhibition assay (HDAC6, fluorimetric kit). In kind it is biochemical. To be noted: for HDAC6 selectivity (fold): HDAC6 versus HDAC1; for IC50: same protocol as the HDAC1 test. As to the method: In order to examine the HDAC6 selectivity of the compounds of formula I of the present invention by HDAC1 and HDAC6 enzymatic activity inhibition assays, an experiment was performed using a conventional substance as a control. HDAC enzyme activity was measured using a HDAC Fluorimetric Drug Discovery Kit (BML-AK511, 516) from Enzo Life Science. For the HDAC1 enzyme activity test, human recombinant HDAC1 (BML-SE456) was used as an enzyme source, and Fluor de Lys®-“SIRT1 (BNL-KI177) was used as a substrate. A 5-fold dilution of the compound was seeded into a 96-well plate, and then 0.3 μg of the enzyme and 10 μM of the substrate were added to each well of the plate and allowed to react at 30° C. for 60 minutes. Then, Fluor de Lys®-Developer II (BML-KI176) was added thereto and allowed to react for 30 minutes, after which the fluorescence value (Ex 360, Em 460) was measured using a multi-plate reader (Flexstation 3, Molecular Device). The HDAC6 enzyme was tested using human recombinant HDAC6 (382180) from Calbiochem, according to the same protocol as the HDAC1 enzyme activity test method. Based on the resulting values, each IC50 value was calculated using GraphPad Prism4.0 program.

As usually defined, the IC50 is the concentration that gives 50% inhibition. As to `O=C(c1ccncc1)N(Cc1ccc(-c2nnc(C(F)(F)F)o2)cc1)c1ccccc1` [Compound 11022, N-phenyl-N-(4-(5-(trifluoromethyl)-1,3,4-oxadiazol-2-yl)benzyl)isonicotinamide], the “HDAC6 selectivity (fold)” value is recorded as 427 fold and the 50% inhibitory concentration (IC50) is 234 nM.
On the same counts, the results for `CC(=O)N(Cc1ccc(-c2nnc(C(F)(F)F)o2)cc1)c1ccccc1` [Compound 11105, N-phenyl-N-(4-(5-(trifluoromethyl)-1,3,4-oxadiazol-2-yl)benzyl)acetamide] are 524 fold and 191 nM.
On the same counts, the results for `O=C(C1CCCCC1)N(Cc1ccc(-c2nnc(C(F)(F)F)o2)cc1)c1ccccc1` [Compound 11106, N-phenyl-N-(4-(5-(trifluoromethyl)-1,3,4-oxadiazol-2-yl)benzyl)cyclohexanecarboxamide] are 77 fold and 1300 nM.
Taken in the same sequence, the figures for `O=C(c1ccccc1)N(Cc1ccc(-c2nnc(C(F)(F)F)o2)cc1)c1ccccc1` [Compound 11107, N-phenyl-N-(4-(5-(trifluoromethyl)-1,3,4-oxadiazol-2-yl)benzyl)benzamide] were 196 fold and 509 nM.
In the case of `O=C(c1ccncc1)N(Cc1ccc(-c2nnc(C(F)F)o2)cc1)c1ccccc1` [Compound 11108, N-(4-(5-(difluoromethyl)-1,3,4-oxadiazol-2-yl)benzyl)-N-phenylisonicotinamide], the “HDAC6 selectivity (fold)” value was determined as 1695 fold and the 50% inhibitory concentration (IC50) was determined as 59 nM.
On the same counts, the results for `O=C(c1ccncc1)N(Cc1ccc(-c2nnc(C(F)(F)F)o2)cc1F)c1ccccc1` [Compound 11109, N-(2-fluoro-4-(5-(trifluoromethyl)-1,3,4-oxadiazol-2-yl)benzyl)-N-phenylisonicotinamide] are 1818 fold and 55 nM.
Taken in the same sequence, the figures for `O=C(c1ccncc1)N(Cc1ccc(-c2nnc(C(F)F)o2)cc1F)c1ccccc1` [Compound 11110, N-(4-(5-(difluoromethyl)-1,3,4-oxadiazol-2-yl)-2-fluorobenzyl)-N-phenylisonicotinamide] were 2000 fold and 50 nM.
Regarding `CC(C)(C)OC(=O)N1CC(C(=O)N(Cc2ccc(-c3nnc(C(F)(F)F)o3)cc2)c2ccccc2)C1` [Compound 11134, tert-butyl 3-(phenyl(4-(5-(trifluoromethyl)-1,3,4-oxadiazol-2-yl)benzyl)carbamoyl)azetidine-1-carboxylate], the “HDAC6 selectivity (fold)” value is reported as 109 fold and the 50% inhibitory concentration (IC50) amounted to 914 nM.
On the same counts, the results for `CC(C)(C)OC(=O)N1CCC(C(=O)N(Cc2ccc(-c3nnc(C(F)(F)F)o3)cc2)c2ccccc2)CC1` [Compound 11135, tert-butyl 4-(phenyl(4-(5-(trifluoromethyl)-1,3,4-oxadiazol-2-yl)benzyl)carbamoyl)piperidine-1-carboxylate] are 36 fold and 2750 nM.
As for `Cl.O=C(C1CNC1)N(Cc1ccc(-c2nnc(C(F)(F)F)o2)cc1)c1ccccc1` [Compound 11136, N-phenyl-N-(4-(5-(trifluoromethyl)-1,3,4-oxadiazol-2-yl)benzyl)azetidine-3-carboxamide hydrochloride], the “HDAC6 selectivity (fold)” value was determined as 493 fold and the IC50 stood at 203 nM.
As for `Cl.O=C(C1CCNCC1)N(Cc1ccc(-c2nnc(C(F)(F)F)o2)cc1)c1ccccc1` [Compound 11137, N-phenyl-N-(4-(5-(trifluoromethyl)-1,3,4-oxadiazol-2-yl)benzyl)piperidine-4-carboxamide hydrochloride], the “HDAC6 selectivity (fold)” value worked out at 275 fold and the IC50 came out at 364 nM.
With `CN1CC(C(=O)N(Cc2ccc(-c3nnc(C(F)(F)F)o3)cc2)c2ccccc2)C1` [Compound 11138, 1-methyl-N-phenyl-N-(4-(5-(trifluoromethyl)-1,3,4-oxadiazol-2-yl)benzyl)azetidine-3-carboxamide], the “HDAC6 selectivity (fold)” value is recorded as 351 fold and the IC50 stood at 285 nM.
Turning to `CCN1CC(C(=O)N(Cc2ccc(-c3nnc(C(F)(F)F)o3)cc2)c2ccccc2)C1` [Compound 11139, 1-ethyl-N-phenyl-N-(4-(5-(trifluoromethyl)-1,3,4-oxadiazol-2-yl)benzyl)azetidine-3-carboxamide], the “HDAC6 selectivity (fold)” value amounted to 775 fold and the IC50 is 129 nM.
Taken in the same sequence, the figures for `CN1CCC(C(=O)N(Cc2ccc(-c3nnc(C(F)(F)F)o3)cc2)c2ccccc2)CC1` [Compound 11140, 1-methyl-N-phenyl-N-(4-(5-(trifluoromethyl)-1,3,4-oxadiazol-2-yl)benzyl)piperidine-4-carboxamide] were 478 fold and 209 nM.
On the same counts, the results for `CCN1CCC(C(=O)N(Cc2ccc(-c3nnc(C(F)(F)F)o3)cc2)c2ccccc2)CC1` [Compound 11141, 1-ethyl-N-phenyl-N-(4-(5-(trifluoromethyl)-1,3,4-oxadiazol-2-yl)benzyl)piperidine-4-carboxamide] are 306 fold and 327 nM.
As for `CC(C)N1CC(C(=O)N(Cc2ccc(-c3nnc(C(F)(F)F)o3)cc2)c2ccccc2)C1` [Compound 11142, 1-isopropyl-N-phenyl-N-(4-(5-(trifluoromethyl)-1,3,4-oxadiazol-2-yl)benzyl)azetidine-3-carboxamide], the “HDAC6 selectivity (fold)” value was 303 fold and the IC50 came out at 330 nM.
Taken in the same sequence, the figures for `CC(C)N1CCC(C(=O)N(Cc2ccc(-c3nnc(C(F)(F)F)o3)cc2)c2ccccc2)CC1` [Compound 11143, 1-isopropyl-N-phenyl-N-(4-(5-(trifluoromethyl)-1,3,4-oxadiazol-2-yl)benzyl)piperidine-4-carboxamide] were 452 fold and 221 nM.
As to `CCC(=O)N1CC(C(=O)N(Cc2ccc(-c3nnc(C(F)(F)F)o3)cc2)c2ccccc2)C1` [Compound 11157, N-phenyl-1-propionyl-N-(4-(5-(trifluoromethyl)-1,3,4-oxadiazol-2-yl)benzyl)azetidine-3-carboxamide], the “HDAC6 selectivity (fold)” value came to 1111 fold and the IC50 was determined as 90 nM.
For the compound `CC(C)C(=O)N1CC(C(=O)N(Cc2ccc(-c3nnc(C(F)(F)F)o3)cc2)c2ccccc2)C1` [Compound 11158, 1-isobutyryl-N-phenyl-N-(4-(5-(trifluoromethyl)-1,3,4-oxadiazol-2-yl)benzyl)azetidine-3-carboxamide], the “HDAC6 selectivity (fold)” value is on record as 1111 fold and the IC50 stood at 90 nM.
Turning to `O=C(C1CN(C(=O)C(F)(F)F)C1)N(Cc1ccc(-c2nnc(C(F)(F)F)o2)cc1)c1ccccc1` [Compound 11159, N-phenyl-1-(2,2,2-trifluoroacetyl)-N-(4-(5-(trifluoromethyl)-1,3,4-oxadiazol-2-yl)benzyl)azetidine-3-carboxamide], the “HDAC6 selectivity (fold)” value is 787 fold and the IC50 turned out to be 127 nM.
`CS(=O)(=O)N1CC(C(=O)N(Cc2ccc(-c3nnc(C(F)(F)F)o3)cc2)c2ccccc2)C1` [Compound 11160, 1-(methylsulfonyl)-N-phenyl-N-(4-(5-(trifluoromethyl)-1,3,4-oxadiazol-2-yl)benzyl)azetidine-3-carboxamide]: the “HDAC6 selectivity (fold)” value is recorded as 606 fold and the concentration for half-maximal inhibition (IC50) worked out at 165 nM.
